Reference: patent US12180146B2, “Antihypertensive polyol compound and derivative thereof” (TAO PHARMACEUTICAL (SUZHOU) CO., LTD, priority 2020, dated 2024)
Counter-ions that a name gives are not always drawn.

Key:
[1] = tested on: spontaneously hypertensive rats (SHR); assay: Antihypertensive activity test: blood pressure and heart rate of spontaneously hypertensive rats (SHR); assay type: in vivo, rat; settings: 200 mg/kg
Outline: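 Spontaneously hypertensive rats received compound at 200 mg/kg. SBP and heart rate were measured before and after dosing. A drop in SBP of ≥20 mmHg from baseline counted as effective, and heart-rate changes were tested by paired t-test (P<0.05).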

[2] = tested on: hypoxic pulmonary hypertension model rats; assay: Hypoxic pulmonary hypertension model rats, oral (gavage) treatment for 28 days; assay type: in vivo, SD rats; settings: hypoxic PAH rats; for 2 × MT/ED / RVHI / RVSP / mPAP: po
Procedure: An animal model of pulmonary hypertension in SD rats was established in a hypoxic and low-pressure environment, and compound 1 was administered by gavage at the same time for treatment. The rat pulmonary artery hemodynamics and right heart hypertrophy index RVHI were measured to determine whether compound 1 has effects of improving hypoxic pulmonary hypertension.
(§1) SD rats (purchased from Shanghai Xipuer-Bikai Experimental Animal Co., Ltd.), male, weighing 180-200 g, were bred in an artificially controlled animal room with each 12 hours of light and darkness at a temperature of 20-25° C. and relative humidity of 50-60%, and allowed ad libitum to food and water. The rats were randomly divided into groups according to the experimental requirements, and kept separately in cages, with 3 to 4 rats per cage. All relevant operations of animal experiments are in compliance with the provisions of “Guidelines for the Management and Use of Laboratory Animals” of China.
The hypoxic PAH model was established by placing SD male rats in a fully-automatically regulated low-pressure hypoxic chamber (atmospheric pressure of about 50 kPa, oxygen concentration of 10%) for 8 hours a day for 28 days. The rats in the blank control group were kept in a normoxic environment.
The experimental rats of hypoxic PAH model were divided into 8 groups, namely blank control group, model group, Sidenafil (25 mg/kg) group, compound 1 (10 mg/kg) group, compound 1 (25 mg/kg) group, compound 1 (50 mg/kg) group, compound 1 (100 mg/kg) group, and compound 1 (200 mg/kg) group. The concentration in the parentheses of the group name represents the administration concentration of the compound or drug. In hypoxia-induced PAH experiments, Sidenafil is often used as a positive drug, which can reduce the pulmonary artery pressure in rats and reduce the right ventricular hypertrophy and vascular remodeling. In this experiment, 25 mg/kg of Sidenafil was used as the positive drug. Both the positive drugs Sidenafil and Compound 1 were dissolved in physiological saline and formulated into solutions of different concentrations according to different administration concentrations. The rats were continuously administered for 28 days with an administration volume of 5 ml/kg. Rats in the control and model groups were given the corresponding volume of physiological saline solution via gavage. The specific grouping can be found in Table 5.
After the administration was completed, the POWERLAB biological information acquisition and treatment system was started, and the right cardiac catheter filled with 0.2% heparin sodium (Beijing Solo Technology Co. Ltd.) in normal saline was connected to the pressure transducer and then zero-calibrationed for use. After 20% urethane (Shanghai Yuanye Biotechnology Co., Ltd.) solution was injected into the abdominal cavity of the rats for anesthesia, the right neck hair was shaved and the right jugular vein was isolated and exposed. […] After the typical right ventricular waveform appeared and stabilized for a while, the waveform was recorded, and then the pressure value was read by Powerlab biological information acquisition and processing system (ADInstruments).
After the pressure was measured, the catheter was taken out, and the rat was dissected immediately to take out the heart and lung tissues. The right ventricle (RV) and the left ventricle and interventricular septum (LV+S) were separated and weighed, and the right heart hypertrophy index RVHI=RV/(LV+S) was calculated. The lung lobe tissue from the right lower part of the lung was separated, soaked in 4% paraformaldehyde (Sigma) for about 1 week to prepare a paraffin section with a thickness of 3 μm, and then conducted to hematoxylin-eosin staining (Wuhan Guge Biotechnology Co., Ltd.). […]

[3] = tested on: monocrotaline-induced pulmonary hypertension model rats (MCT-PAH); assay: Monocrotaline-induced pulmonary hypertension model rats, oral (gavage) treatment for 21 days; assay type: in vivo, SD rats
Source text: Monocrotaline (MCT) was subcutaneously injected to establish an animal model of pulmonary hypertension in SD rats. At the same time, compound 1 was given by gavage for treatment. The pulmonary artery hemodynamics and right heart hypertrophy index RVHI of the rates were detected to determine whether the oral administration of compound 1 has effects of improving Monocrotaline induces pulmonary hypertension.
as §1
During the experiment, SD rats were randomly divided into 4 groups: blank control group, pulmonary hypertension model group, Selexipag (1 mg/kg) treatment group and compound 1 (100 mg/kg) group with 6 rats in each group, and the concentration in brackets represents the administration concentration of the compound, in which Selexipag is a new oral long-acting prostacyclin receptor agonist discovered and synthesized by Japan New Drug Co., Ltd. On the first day of the experiment, normal saline was injected subcutaneously into the back of neck of rats in the blank control group, and monocrotaline (Chengdu Purifa Biotechnology Co., Ltd.) solution was injected in the rats in other groups at a dosage of 60 mg/kg. Both the positive drug, Selexipag and Compound 1 were administered by gavage. Selexipag and […] were dissolved in 0.5% CMC-Na solution. The rats were continuously administered for 21 days with a volume of […]. The rats in the control and model groups were given the corresponding volume of CMC-Na solution by gavage. Specific groupings can be found in Table 7.
After the administration, the pulmonary vascular hemodynamics and RVHI was determined according to the same experiment method as that in Example 1.

[4] = tested on: monocrotaline-induced pulmonary hypertension model rats (MCT-PAH); assay: Monocrotaline-induced pulmonary hypertension model rats, aerosol inhalation treatment; assay type: in vivo, SD rats; settings: 30 mg/kg, inh, 28 days
Procedure: A pulmonary hypertension animal model of SD rats was established by subcutaneous injection of monocrotaline (MCT). The compound 1 was administered by aerosol inhalation for treatment. The pulmonary artery hemodynamics and right heart hypertrophy index RVHI of rats were tested to determine whether compound 1 administered by aerosol inhalation has effects of improving monocrotaline-induced pulmonary hypertension.
as §1
In the second experiment, the rats were divided into 5 groups, namely the control group, model group, positive control Tyvaso (1.62 μg/kg) group, compound 1 (10 mg/kg) group and compound 1 (30 mg/kg) group. On the first day of the experiment, normal saline was injected subcutaneously into the back of the neck of the rats in the blank control group, and monocrotaline (Chengdu Purifa Biotechnology Co., Ltd.) solution was injected in the other groups at a dosage of 60 mg/kg. Compound 1 and Tyvaso were administered by aerosol inhalation, that is, the compound was firstly dissolved in physiological saline, and then the solution was prepared into an aerosol with a nebulizer to be inhaled into the mouth and nose of rats. The rats in the control group and the model group only inhaled an aerosol made of physiological saline. The rats were continuously administered for 28 days, and the concentration in the parentheses of the group name represents the administered concentration of the compound. Specific groupings can be found in Table 9. After the administration, the pulmonary vascular hemodynamics and RVHI were determined in the same way as the experiment method in Example 1.

[5] = after administration (6 h M ± SD), n = 8
[6] = before administration, M ± SD, n = 8

## CCc1ccccc1C(O)CO (stereo not drawn) [Compound 5]
[1]; 1 h
  SBP Difference before and after administration, 1 h: 20 mmHg
[1]; 1 h, n = 8
  SHR blood pressure (SBP), time after administration 1 h: 169 ± 6.32 mmHg
[1]; 2 h
  SBP Difference before and after administration, 2 h: 15 mmHg
[1]; 2 h, n = 8
  SHR blood pressure (SBP), time after administration 2 h: 174 ± 4.56 mmHg
[1]; 3 h
  SBP Difference before and after administration, 3 h: 18 mmHg
[1]; 3 h, n = 8
  SHR blood pressure (SBP), time after administration 3 h: 171 ± 9.34 mmHg
[1]; 4 h
  SBP Difference before and after administration, 4 h: 16 mmHg
[1]; 4 h, n = 8
  SHR blood pressure (SBP), time after administration 4 h: 173 ± 13.66 mmHg
[1]; 5 h
  SBP Difference before and after administration, 5 h: 15 mmHg
[1]; 5 h, n = 8
  SHR blood pressure (SBP), time after administration 5 h: 174 ± 15.9 mmHg
[1]; 6 h
  SBP Difference before and after administration, 6 h: 11 mmHg
[1]; 6 h, n = 8
  SHR blood pressure (SBP), time after administration 6 h: 178 ± 8.48 mmHg
[2]; 200 mg/kg
  2 × MT/ED: 0.270 ± 0.012
  RVHI: 0.271 ± 0.038
  RVSP: 60.29 ± 3.87 mmHg
  mPAP: 15.76 ± 2.71 mmHg
[3]; 100 mg/kg
  2 × MT/ED: 0.29 ± 0.054
  RVHI: 0.35 ± 0.048
  RVSP: 44.32 ± 2.12 mmHg
  mPAP: 15.76 ± 2.71 mmHg
[4]
  2 × MT/ED: 0.390 ± 0.038
  RVHI: 0.324 ± 0.053
  RVSP: 40.18 ± 4.62 mmHg
  mPAP: 11.06 ± 2.95 mmHg

## COCCc1ccc(OCC(O)CNC(C)C)cc1 (stereo not drawn) [Metoprolol Hydrochloride, reference compound]
[1]
  effect on heart rate while lowering blood pressure: significantly slow down the heart rate
  time after administration of lowest value of blood pressure: 3 h
[1]; 0 h, N = 8
  SHR heart rate, time after administration 0 h: 328 ± 24.5 beat/min
[1]; 1 h
  Heart rate Difference before and after administration, 1 h: −44 beat/min
  SBP Difference before and after administration, 1 h: 20 mmHg
[1]; 1 h, N = 8
  SHR heart rate, time after administration 1 h: 283 ± 24.4 beat/min
[1]; 1 h, n = 8
  SHR blood pressure (SBP), time after administration 1 h: 166 ± 6.39 mmHg
[1]; 2 h
  Heart rate Difference before and after administration, 2 h: −45 beat/min
  SBP Difference before and after administration, 2 h: 22 mmHg
[1]; 2 h, N = 8
  SHR heart rate, time after administration 2 h: 283 ± 23.1 beat/min
[1]; 2 h, n = 8
  SHR blood pressure (SBP), time after administration 2 h: 164 ± 4.50 mmHg
[1]; 3 h
  Heart rate Difference before and after administration, 3 h: −49 beat/min
  SBP Difference before and after administration, 3 h: 25 mmHg
[1]; 3 h, N = 8
  SHR heart rate, time after administration 3 h: 279 ± 22.3 beat/min
[1]; 3 h, n = 8
  SHR blood pressure (SBP), time after administration 3 h: 161 ± 9.15 mmHg
[1]; 4 h
  Heart rate Difference before and after administration, 4 h: −48 beat/min
  SBP Difference before and after administration, 4 h: 24 mmHg
[1]; 4 h, N = 8
  SHR heart rate, time after administration 4 h: 280 ± 23.0 beat/min
[1]; 4 h, n = 8
  SHR blood pressure (SBP), time after administration 4 h: 163 ± 13.7 mmHg
[1]; 5 h
  Heart rate Difference before and after administration, 5 h: −43 beat/min
  SBP Difference before and after administration, 5 h: 23 mmHg
[1]; 5 h, N = 8
  SHR heart rate, time after administration 5 h: 285 ± 24.0 beat/min
[1]; 5 h, n = 8
  SHR blood pressure (SBP), time after administration 5 h: 164 ± 15.9 mmHg
[1]; 6 h
  Heart rate Difference before and after administration, 6 h: −40 beat/min
  SBP Difference before and after administration, 6 h: 18 mmHg
[1]; 6 h, N = 8
  SHR heart rate, time after administration 6 h: 288 ± 28.5 beat/min
[1]; 6 h, n = 8
  SHR blood pressure (SBP), time after administration 6 h: 168 ± 8.78 mmHg
[1]; 6 hours after administration
  average heart rate slowed by: 46 beats/min
[1]; [5]
  Blood pressure (SBP, mmHg) After administration: 164 ± 7.85 mmHg
  Heart rate (beat/min) After administration: 282 ± 21.3 beat/min
[1]; after administration minus baseline (6 h)
  Heart rate Difference (beat/min): −46 beat/min
[1]; at most recorded time points
  blood pressure reduction after administration: more than 20 mmHg
[1]; baseline minus after administration (6 h)
  Blood pressure Difference mmHg: 23 mmHg
[1]; [6]
  Blood pressure (SBP, mmHg) Baseline: 186 ± 7.87 mmHg
  Heart rate (beat/min) Baseline: 328 ± 24.5 beat/min

## CCCc1nn(C)c2c(=O)[nH]c(-c3cc(S(=O)(=O)N4CCN(C)CC4)ccc3OCC)nc12 [Sildenafil, reference compound]
[2]; 25 mg/kg, gavage
  value of RV/(LV+S), remodeling of the right ventricle: effectively reduce
[2]; 25 mg/kg
  2 × MT/ED: 0.238 ± 0.018
  RVHI: 0.240 ± 0.028
  RVSP: 50.12 ± 2.96 mmHg
  mPAP: 14.34 ± 2.48 mmHg

## CC(C)N(CCCCOCC(=O)NS(C)(=O)=O)c1cnc(-c2ccccc2)c(-c2ccccc2)n1 [selexipag, reference compound]
[3]; 1 mg/kg
  pulmonary arteriole hypertrophy vs. Model: significantly reduced
[3]; 1 mg/kg, twice a day
  2 × MT/ED: 0.30 ± 0.086
  RVHI: 0.27±0.026
  RVSP: 35.67 ± 2.89 mmHg
  mPAP: 8.78 ± 1.98 mmHg
